In US12077503B2, “Substituted cyclic amides and their use as herbicides” (FMC CORPORATION, priority 2015, dated 2024):

Experiments:
Format in all cases: in vivo
[1] = test system: sedge, umbrella (small-flower umbrella sedge, Cyperus difformis); assay: Test C flooded paddy test; conditions: Flood, 0 is no effect, 100 is complete control
Outline: (§1)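 Visual 0–100 injury rating versus controls (0 = no effect, 100 = complete control) at 13 to 15 d. 2-leaf-stage plants; pots flooded 3 cm over soil surface, test compound added to paddy water; greenhouse.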

[2] = test system: barnyardgrass (Echinochloa crus-galli); assay: Test C flooded paddy test; conditions: Flood, 0 is no effect, 100 is complete control
Outline: as §1

rice (Oryza sativa) = assay: Test C flooded paddy test; conditions: Flood, 0 is no effect, 100 is complete control
Outline: as §1

[3] = test system: ducksalad (Heteranthera limosa); assay: Test C flooded paddy test; conditions: Flood, 0 is no effect, 100 is complete control
Outline: as §1

Kochia (Kochia scoparia) = assay: Test E preemergence; conditions: scale 0 to 100
Text: (§2) Seeds of plant species selected from corn (Zea mays), soybean (Glycine max), velvetleaf (Abutilon theophrasti), lambsquarters (Chenopodium album), poinsettia, wild (wild poinsettia, Euphorbia heterophylla), pigweed, palmer (palmer pigweed, Amaranthus palmeri), waterhemp (common waterhemp, Amaranthus rudis), surinam grass (Brachiaria decumbens), crabgrass, large (large crabgrass, Digitaria sangumnalis), crabgrass, Brazil (Brazilian crabgrass, Digitaria horizontalis), Panicum, fall (fall Panicum, Panicum dichotomiflorum), foxtail, giant (giant foxtail, Setaria faberii), foxtail, green (green foxtail, Setaria viridis), goosegrass (Eleusine indica), johnsongrass (Sorghum halepense), ragweed (common ragweed, Ambrosia elatior), barnyardgrass (Echinochloa crus-galli), sandbur (southern sandbur, Cenchrus echinatus), arrowleaf Sida (Sida rhombifolia), ryegrass, Italian (Italian ryegrass, Lolium multiflorum), dayflower, VA (Virginia dayflower, Commelina virginica), field bindweed (Convolvulus arvensis), morningglory (Ipomoea coccinea), nightshade (eastern black nightshade, Solanum ptycanthum), Kochia (Kochia scoparia), nutsedge, yellow (yellow nutsedge, Cyperus esculentus), horseweed (Conyza canadensis), and beggarticks (hairy beggarticks, Bidens pilosa), were planted into a silt loam soil and treated preemergence with test chemicals formulated in a non-phytotoxic solvent mixture which included a surfactant.
(§3) At the same time, plants selected from these crop and weed species were planted in pots containing Sunshine Redi-Earth planting medium comprising spaghnum peat moss, vermiculite, starter nutrients and dolomitic limestone and treated with postemergence applications of a test chemical formulated in the same manner. Plants ranged in height from 2 to 18 cm (1- to 4-leaf stage) for postemergence treatments. Treated plants and controls were maintained in a greenhouse for 14 to 21 d, after which time all species were compared to controls and visually evaluated. Plant response ratings, summarized in Table E, are based on a scale of 0 to 100 where 0 is no effect and 100 is complete control. A dash (-) response means no test result.

[4] = test system: field bindweed (Convolvulus arvensis); assay: Test E preemergence; conditions: scale 0 to 100
Text: as §2, §3

[5] = test system: foxtail, giant (giant foxtail, Setaria faberii); assay: Test E preemergence; conditions: scale 0 to 100
Text: as §2, §3

[6] = test system: Panicum, fall (fall Panicum, Panicum dichotomiflorum); assay: Test E preemergence; conditions: scale 0 to 100
Text: as §2, §3

[7] = test system: dayflower, VA (Virginia dayflower, Commelina virginica); assay: Test E preemergence; conditions: scale 0 to 100
Text: as §2, §3

[8] = test system: waterhemp (common waterhemp, Amaranthus rudis); assay: Test E preemergence; conditions: scale 0 to 100
Text: as §2, §3

[9] = test system: arrowleaf Sida (Sida rhombifolia); assay: Test E preemergence; conditions: scale 0 to 100
Text: as §2, §3

[10] = test system: velvetleaf (Abutilon theophrasti); assay: Test E preemergence; conditions: scale 0 to 100
Text: as §2, §3

[11] = test system: morningglory (Ipomoea coccinea); assay: Test E preemergence; conditions: scale 0 to 100
Text: as §2, §3

[12] = test system: foxtail, green (green foxtail, Setaria viridis); assay: Test E preemergence; conditions: scale 0 to 100
Text: as §2, §3

[13] = test system: crabgrass, large (large crabgrass, Digitaria sangumnalis); assay: Test E preemergence; conditions: scale 0 to 100
Text: as §2, §3

[14] = test system: beggarticks (hairy beggarticks, Bidens pilosa); assay: Test E preemergence; conditions: scale 0 to 100
Text: as §2, §3

[15] = test system: horseweed (Conyza canadensis); assay: Test E preemergence; conditions: scale 0 to 100
Text: as §2, §3

[16] = test system: pigweed, palmer (palmer pigweed, Amaranthus palmeri); assay: Test E preemergence; conditions: scale 0 to 100
Text: as §2, §3

## CN1CC(c2cccc(OC(F)F)c2)C(C(=O)Nc2ccccc2F)C1=O (stereo not drawn) [Compound 618]
[1]; 31 g ai/ha
  Plant response rating (scale of 0 to 100), Sedge, Umbrella: 0
[1]; 62 g ai/ha
  Plant response rating (scale of 0 to 100), Sedge, Umbrella: 0
[1]; 125 g ai/ha
  Plant response rating (scale of 0 to 100), Sedge, Umbrella: 0
[1]; 250 g ai/ha
  Plant response rating (scale of 0 to 100), Sedge, Umbrella: 0
[2]; 31 g ai/ha
  Plant response rating (scale of 0 to 100), Barnyardgrass: 35
[2]; 62 g ai/ha
  Plant response rating (scale of 0 to 100), Barnyardgrass: 50
[2]; 125 g ai/ha
  Plant response rating (scale of 0 to 100), Barnyardgrass: 75
[2]; 250 g ai/ha
  Plant response rating (scale of 0 to 100), Barnyardgrass: 80
Rice (Oryza sativa); 31 g ai/ha
  Plant response rating (scale of 0 to 100), Rice: 0
Rice (Oryza sativa); 62 g ai/ha
  Plant response rating (scale of 0 to 100), Rice: 0
Rice (Oryza sativa); 125 g ai/ha
  Plant response rating (scale of 0 to 100), Rice: 15
Rice (Oryza sativa); 250 g ai/ha
  Plant response rating (scale of 0 to 100), Rice: 15
[3]; 31 g ai/ha
  Plant response rating (scale of 0 to 100), Ducksalad: 60
[3]; 62 g ai/ha
  Plant response rating (scale of 0 to 100), Ducksalad: 60
[3]; 125 g ai/ha
  Plant response rating (scale of 0 to 100), Ducksalad: 95
[3]; 250 g ai/ha
  Plant response rating (scale of 0 to 100), Ducksalad: 100

## CN1CC(c2ccc(C(F)(F)F)cc2)C(C(=O)Nc2ccccc2S(C)(=O)=O)C1=O (stereo not drawn) [Compound 624]
Kochia (Kochia scoparia); 31 g ai/ha
  Plant response rating: Kochia: 0
Kochia (Kochia scoparia); 125 g ai/ha
  Plant response rating: Kochia: 0
Kochia (Kochia scoparia); 250 g ai/ha
  Plant response rating: Kochia: 30
[4]; 31 g ai/ha
  Plant response rating: Field Bindweed: 0
[4]; 62 g ai/ha
  Plant response rating: Field Bindweed: 10
[4]; 125 g ai/ha
  Plant response rating: Field Bindweed: 5
[4]; 250 g ai/ha
  Plant response rating: Field Bindweed: 10
[5]; 31 g ai/ha
  Plant response rating: Foxtail, Giant: 20
[5]; 62 g ai/ha
  Plant response rating: Foxtail, Giant: 50
[5]; 125 g ai/ha
  Plant response rating: Foxtail, Giant: 70
[5]; 250 g ai/ha
  Plant response rating: Foxtail, Giant: 85
[6]; 31 g ai/ha
  Plant response rating: Panicum, Fall: 0
[6]; 62 g ai/ha
  Plant response rating: Panicum, Fall: 0
[6]; 125 g ai/ha
  Plant response rating: Panicum, Fall: 30
[6]; 250 g ai/ha
  Plant response rating: Panicum, Fall: 60
[7]; 31 g ai/ha
  Plant response rating: Dayflower, VA: 0
[7]; 62 g ai/ha
  Plant response rating: Dayflower, VA: 0
[7]; 125 g ai/ha
  Plant response rating: Dayflower, VA: 30
[7]; 250 g ai/ha
  Plant response rating: Dayflower, VA: 50
[8]; 31 g ai/ha
  Plant response rating: Waterhemp: 50
[8]; 62 g ai/ha
  Plant response rating: Waterhemp: 60
[8]; 125 g ai/ha
  Plant response rating: Waterhemp: 75
[8]; 250 g ai/ha
  Plant response rating: Waterhemp: 70
[9]; 31 g ai/ha
  Plant response rating: Arrowleaf Sida: 50
[9]; 62 g ai/ha
  Plant response rating: Arrowleaf Sida: 50
[9]; 125 g ai/ha
  Plant response rating: Arrowleaf Sida: 40
[9]; 250 g ai/ha
  Plant response rating: Arrowleaf Sida: 60
[10]; 31 g ai/ha
  Plant response rating: Velvetleaf: 0
[10]; 62 g ai/ha
  Plant response rating: Velvetleaf: 0
[10]; 125 g ai/ha
  Plant response rating: Velvetleaf: 10
[10]; 250 g ai/ha
  Plant response rating: Velvetleaf: 20
[11]; 31 g ai/ha
  Plant response rating: Morningglory: 10
[11]; 62 g ai/ha
  Plant response rating: Morningglory: 20
[11]; 125 g ai/ha
  Plant response rating: Morningglory: 50
[11]; 250 g ai/ha
  Plant response rating: Morningglory: 40
[12]; 31 g ai/ha
  Plant response rating: Foxtail, Green: 20
[12]; 62 g ai/ha
  Plant response rating: Foxtail, Green: 20
[12]; 125 g ai/ha
  Plant response rating: Foxtail, Green: 65
[12]; 250 g ai/ha
  Plant response rating: Foxtail, Green: 75
[13]; 31 g ai/ha
  Plant response rating: Crabgrass, Large: 30
[13]; 62 g ai/ha
  Plant response rating: Crabgrass, Large: 85
[13]; 125 g ai/ha
  Plant response rating: Crabgrass, Large: 80
[13]; 250 g ai/ha
  Plant response rating: Crabgrass, Large: 90
[14]; 31 g ai/ha
  Plant response rating: Beggarticks: 20
[14]; 62 g ai/ha
  Plant response rating: Beggarticks: 25
[14]; 125 g ai/ha
  Plant response rating: Beggarticks: 40
[14]; 250 g ai/ha
  Plant response rating: Beggarticks: 50
[15]; 31 g ai/ha
  Plant response rating: Horseweed: 30
[15]; 62 g ai/ha
  Plant response rating: Horseweed: 90
[15]; 250 g ai/ha
  Plant response rating: Horseweed: 85
[16]; 31 g ai/ha
  Plant response rating: Pigweed, Palmer: 0
[16]; 62 g ai/ha
  Plant response rating: Pigweed, Palmer: 25
[16]; 125 g ai/ha
  Plant response rating: Pigweed, Palmer: 20
[16]; 250 g ai/ha
  Plant response rating: Pigweed, Palmer: 30

## CN1CC(c2cccc(C(F)(F)F)c2)C(C(=O)Nc2cccc(F)c2F)C1=O (stereo not drawn) [Compound 636]
Kochia (Kochia scoparia); 31 g ai/ha
  Plant response rating: Kochia: 85
Kochia (Kochia scoparia); 62 g ai/ha
  Plant response rating: Kochia: 90
Kochia (Kochia scoparia); 125 g ai/ha
  Plant response rating: Kochia: 90
Kochia (Kochia scoparia); 250 g ai/ha
  Plant response rating: Kochia: 95
[4]; 31 g ai/ha
  Plant response rating: Field Bindweed: 0
[4]; 62 g ai/ha
  Plant response rating: Field Bindweed: 75
[4]; 125 g ai/ha
  Plant response rating: Field Bindweed: 80
[4]; 250 g ai/ha
  Plant response rating: Field Bindweed: 70
[5]; 31 g ai/ha
  Plant response rating: Foxtail, Giant: 95
[5]; 62 g ai/ha
  Plant response rating: Foxtail, Giant: 95
[5]; 125 g ai/ha
  Plant response rating: Foxtail, Giant: 95
[5]; 250 g ai/ha
  Plant response rating: Foxtail, Giant: 95
[6]; 31 g ai/ha
  Plant response rating: Panicum, Fall: 90
[6]; 62 g ai/ha
  Plant response rating: Panicum, Fall: 90
[6]; 125 g ai/ha
  Plant response rating: Panicum, Fall: 100
[6]; 250 g ai/ha
  Plant response rating: Panicum, Fall: 90
[7]; 31 g ai/ha
  Plant response rating: Dayflower, VA: 0
[7]; 62 g ai/ha
  Plant response rating: Dayflower, VA: 0
[7]; 125 g ai/ha
  Plant response rating: Dayflower, VA: 35
[7]; 250 g ai/ha
  Plant response rating: Dayflower, VA: 65
[8]; 31 g ai/ha
  Plant response rating: Waterhemp: 25
[8]; 62 g ai/ha
  Plant response rating: Waterhemp: 80
[8]; 125 g ai/ha
  Plant response rating: Waterhemp: 70
[8]; 250 g ai/ha
  Plant response rating: Waterhemp: 80
[9]; 31 g ai/ha
  Plant response rating: Arrowleaf Sida: 35
[9]; 62 g ai/ha
  Plant response rating: Arrowleaf Sida: 65
[9]; 125 g ai/ha
  Plant response rating: Arrowleaf Sida: 80
[9]; 250 g ai/ha
  Plant response rating: Arrowleaf Sida: 90
[10]; 31 g ai/ha
  Plant response rating: Velvetleaf: 20
[10]; 62 g ai/ha
  Plant response rating: Velvetleaf: 35
[10]; 125 g ai/ha
  Plant response rating: Velvetleaf: 60
[10]; 250 g ai/ha
  Plant response rating: Velvetleaf: 40
[11]; 31 g ai/ha
  Plant response rating: Morningglory: 0
[11]; 62 g ai/ha
  Plant response rating: Morningglory: 0
[11]; 125 g ai/ha
  Plant response rating: Morningglory: 0
[11]; 250 g ai/ha
  Plant response rating: Morningglory: 0
[12]; 31 g ai/ha
  Plant response rating: Foxtail, Green: 95
[12]; 62 g ai/ha
  Plant response rating: Foxtail, Green: 95
[12]; 125 g ai/ha
  Plant response rating: Foxtail, Green: 95
[12]; 250 g ai/ha
  Plant response rating: Foxtail, Green: 98
[13]; 31 g ai/ha
  Plant response rating: Crabgrass, Large: 98
[13]; 62 g ai/ha
  Plant response rating: Crabgrass, Large: 98
[13]; 125 g ai/ha
  Plant response rating: Crabgrass, Large: 98
[13]; 250 g ai/ha
  Plant response rating: Crabgrass, Large: 98
[14]; 31 g ai/ha
  Plant response rating: Beggarticks: 0
[14]; 62 g ai/ha
  Plant response rating: Beggarticks: 0
[14]; 125 g ai/ha
  Plant response rating: Beggarticks: 0
[14]; 250 g ai/ha
  Plant response rating: Beggarticks: 0
[15]; 31 g ai/ha
  Plant response rating: Horseweed: 0
[15]; 62 g ai/ha
  Plant response rating: Horseweed: 90
[15]; 125 g ai/ha
  Plant response rating: Horseweed: 95
[15]; 250 g ai/ha
  Plant response rating: Horseweed: 95
[16]; 31 g ai/ha
  Plant response rating: Pigweed, Palmer: 0
[16]; 62 g ai/ha
  Plant response rating: Pigweed, Palmer: 10
[16]; 125 g ai/ha
  Plant response rating: Pigweed, Palmer: 80
[16]; 250 g ai/ha
  Plant response rating: Pigweed, Palmer: 90
